Results taken from paper PMC11079024, “Identification of a family of species-selective complex I inhibitors as potential anthelmintics” (Nature Communications, 2024).
Several values for one entry are separate records, joined by “and”; a condition that tells them apart may be missing. Equal values may be shown once. Read-outs that look alike come from different tables or passages of the source.

Experiments:
L1 wild-type C. elegans [1] = assay: 15-hour motility assay with drug alone (no KCN); assay type: cell-based, Caenorhabditis elegans; conditions: without KCN, 15-hour; for Value relative to DMSO control, drug alone (without KCN), Mean: mean of replicates; for Value relative to DMSO control, drug alone (without KCN): single replicates
L1 wild-type C. elegans [2] = conditions: drug + KCN, 15-hour; for KCN survival assay value relative to DMSO control, Mean: mean of replicates; for KCN survival assay value relative to DMSO control: single replicates
L1 wild-type C. elegans [3] = assay: whole plant or invertebrate; conditions: Caenorhabditis elegans, 15 h, read-out: C. elegans KCN survival assay LC50

## O=C(Nc1cc(Cl)cc(Cl)c1O)c1c(O)c(Cl)cc(Cl)c1Cl [Oxyclozanide]
L1 wild-type C. elegans [1]; 0.025 µM
  Value relative to DMSO control, drug alone (without KCN), Mean: 0.970
  Value relative to DMSO control, drug alone (without KCN): 1.075 and 0.779 and 1.056
L1 wild-type C. elegans [1]; 0.05 µM
  Value relative to DMSO control, drug alone (without KCN), Mean: 1.040
  Value relative to DMSO control, drug alone (without KCN): 0.978 and 1.142 and 1.000
L1 wild-type C. elegans [1]; 0.1 µM
  Value relative to DMSO control, drug alone (without KCN), Mean: 1.014
  Value relative to DMSO control, drug alone (without KCN): 1.026 and 1.091 and 0.926
L1 wild-type C. elegans [1]; 0.2 µM
  Value relative to DMSO control, drug alone (without KCN), Mean: 0.862
  Value relative to DMSO control, drug alone (without KCN): 0.850 and 0.960 and 0.775
L1 wild-type C. elegans [1]; 0.4 µM
  Value relative to DMSO control, drug alone (without KCN), Mean: 0.811
  Value relative to DMSO control, drug alone (without KCN): 0.730 and 0.844 and 0.861
L1 wild-type C. elegans [1]; 0.8 µM
  Value relative to DMSO control, drug alone (without KCN), Mean: 0.863
  Value relative to DMSO control, drug alone (without KCN): 0.803 and 1.008 and 0.777
L1 wild-type C. elegans [1]; 3.1 µM
  Value relative to DMSO control, drug alone (without KCN), Mean: 0.927
  Value relative to DMSO control, drug alone (without KCN): 0.899 and 1.068 and 0.814
L1 wild-type C. elegans [1]; 6.3 µM
  Value relative to DMSO control, drug alone (without KCN), Mean: 0.856
  Value relative to DMSO control, drug alone (without KCN): 0.946 and 0.940 and 0.683
L1 wild-type C. elegans [1]; 12.5 µM
  Value relative to DMSO control, drug alone (without KCN), Mean: 0.986
  Value relative to DMSO control, drug alone (without KCN): 0.842 and 1.234 and 0.881
L1 wild-type C. elegans [1]; 25 µM
  Value relative to DMSO control, drug alone (without KCN), Mean: 0.843
  Value relative to DMSO control, drug alone (without KCN): 0.680 and 1.053 and 0.797
L1 wild-type C. elegans [2]; 0.025 µM
  KCN survival assay value relative to DMSO control, Mean: 1.036
  KCN survival assay value relative to DMSO control: 1.103 and 1.007 and 0.999
L1 wild-type C. elegans [2]; 0.05 µM
  KCN survival assay value relative to DMSO control, Mean: 1.033
  KCN survival assay value relative to DMSO control: 1.103 and 1.025 and 0.972
L1 wild-type C. elegans [2]; 0.1 µM
  KCN survival assay value relative to DMSO control, Mean: 0.765
  KCN survival assay value relative to DMSO control: 0.944 and 0.659 and 0.693
L1 wild-type C. elegans [2]; 0.2 µM
  KCN survival assay value relative to DMSO control, Mean: 0.371
  KCN survival assay value relative to DMSO control: 0.478 and 0.398 and 0.238
L1 wild-type C. elegans [2]; 0.4 µM
  KCN survival assay value relative to DMSO control, Mean: 0.077
L1 wild-type C. elegans [2]; 0.8 µM
  KCN survival assay value relative to DMSO control, Mean: 0.012
L1 wild-type C. elegans [2]; 3.1 µM
  KCN survival assay value relative to DMSO control, Mean: 0.000
  KCN survival assay value relative to DMSO control: 0.000
L1 wild-type C. elegans [2]; 6.3 µM
  KCN survival assay value relative to DMSO control, Mean: 0.000
  KCN survival assay value relative to DMSO control: 0.000
L1 wild-type C. elegans [2]; 12.5 µM
  KCN survival assay value relative to DMSO control, Mean: 0.0006
L1 wild-type C. elegans [2]; 25 µM
  KCN survival assay value relative to DMSO control, Mean: 0.000
  KCN survival assay value relative to DMSO control: 0.000
L1 wild-type C. elegans [3]
  LC50: 158 nM

## O=C(Nc1ccc(Oc2ccc(Cl)cc2)c(Cl)c1)c1cc(I)cc(I)c1O [Rafoxanide]
L1 wild-type C. elegans [1]; 0.025 µM
  Value relative to DMSO control, drug alone (without KCN), Mean: 1.251
  Value relative to DMSO control, drug alone (without KCN): 1.299 and 1.275 and 1.179
L1 wild-type C. elegans [1]; 0.05 µM
  Value relative to DMSO control, drug alone (without KCN), Mean: 1.063
  Value relative to DMSO control, drug alone (without KCN): 1.000 and 1.187
L1 wild-type C. elegans [1]; 0.1 µM
  Value relative to DMSO control, drug alone (without KCN), Mean: 0.952
  Value relative to DMSO control, drug alone (without KCN): 0.779 and 1.140 and 0.937
L1 wild-type C. elegans [1]; 0.2 µM
  Value relative to DMSO control, drug alone (without KCN), Mean: 0.871
  Value relative to DMSO control, drug alone (without KCN): 0.876 and 1.068 and 0.668
L1 wild-type C. elegans [1]; 0.4 µM
  Value relative to DMSO control, drug alone (without KCN), Mean: 0.805
  Value relative to DMSO control, drug alone (without KCN): 0.814 and 0.980 and 0.622
L1 wild-type C. elegans [1]; 0.8 µM
  Value relative to DMSO control, drug alone (without KCN), Mean: 0.942
  Value relative to DMSO control, drug alone (without KCN): 0.867 and 0.978 and 0.981
L1 wild-type C. elegans [1]; 3.1 µM
  Value relative to DMSO control, drug alone (without KCN), Mean: 0.954
  Value relative to DMSO control, drug alone (without KCN): 1.089 and 0.794 and 0.978
L1 wild-type C. elegans [1]; 6.3 µM
  Value relative to DMSO control, drug alone (without KCN), Mean: 1.113
  Value relative to DMSO control, drug alone (without KCN): 1.082 and 1.203 and 1.055
L1 wild-type C. elegans [1]; 12.5 µM
  Value relative to DMSO control, drug alone (without KCN), Mean: 1.298
  Value relative to DMSO control, drug alone (without KCN): 1.422 and 1.293 and 1.177
L1 wild-type C. elegans [1]; 25 µM
  Value relative to DMSO control, drug alone (without KCN), Mean: 1.108
  Value relative to DMSO control, drug alone (without KCN): 1.103 and 1.144 and 1.075
L1 wild-type C. elegans [2]; 0.025 µM
  KCN survival assay value relative to DMSO control, Mean: 0.992
  KCN survival assay value relative to DMSO control: 1.081 and 1.011 and 0.883
L1 wild-type C. elegans [2]; 0.05 µM
  KCN survival assay value relative to DMSO control, Mean: 0.890
  KCN survival assay value relative to DMSO control: 0.979 and 0.794 and 0.899
L1 wild-type C. elegans [2]; 0.1 µM
  KCN survival assay value relative to DMSO control, Mean: 0.788
  KCN survival assay value relative to DMSO control: 1.030 and 0.770 and 0.563
L1 wild-type C. elegans [2]; 0.2 µM
  KCN survival assay value relative to DMSO control, Mean: 0.261
L1 wild-type C. elegans [2]; 0.4 µM
  KCN survival assay value relative to DMSO control, Mean: 0.0026
L1 wild-type C. elegans [2]; 0.8 µM
  KCN survival assay value relative to DMSO control, Mean: 0.0007
L1 wild-type C. elegans [2]; 3.1 µM
  KCN survival assay value relative to DMSO control, Mean: 0.000
  KCN survival assay value relative to DMSO control: 0.000
L1 wild-type C. elegans [2]; 6.3 µM
  KCN survival assay value relative to DMSO control, Mean: 0.0019
L1 wild-type C. elegans [2]; 12.5 µM
  KCN survival assay value relative to DMSO control, Mean: 0.000
  KCN survival assay value relative to DMSO control: 0.000
L1 wild-type C. elegans [2]; 25 µM
  KCN survival assay value relative to DMSO control, Mean: 0.000
  KCN survival assay value relative to DMSO control: 0.000
L1 wild-type C. elegans [3]
  LC50: 141 nM
